Where “and” joins values, the source holds several entries; their conditions need not be identical. Equal entries are not always repeated. Inconclusive results and toxic doses are left out. Rule for the calls: active = survival T/C of 150% or more; inactive = T/C below 125% in these data.
Test system: BDF1 mice, B16 melanoma ip, median survival T/C
Assay: NCI In Vivo Anticancer Drug Screen. Data for tumor model B16 Melanoma (intraperitoneal) in B6D2F1 (BDF1) mice
Conditions: endpoint: median survival time, higher = longer survival
Summary of the method: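 Read-out: survival or tumor size, given as treated/control ratio. Controls received vehicle only; animals bore transplantable tumors.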

[1] = dose: 6.25 mg/kg/injection, schedule: Q01DX009 (ip), vehicle: Klucel (hydroxypropylcellulose) (HPC)
[2] = dose: 12.5 mg/kg/injection, schedule: Q01DX009 (ip), vehicle: Klucel (hydroxypropylcellulose) (HPC)
[3] = dose: 25.0 mg/kg/injection, schedule: Q01DX009 (ip), vehicle: Klucel (hydroxypropylcellulose) (HPC)
[4] = dose: 50.0 mg/kg/injection, schedule: Q01DX009 (ip), vehicle: Klucel (hydroxypropylcellulose) (HPC)
[5] = dose: 100.0 mg/kg/injection, schedule: Q01DX009 (ip), vehicle: Klucel (hydroxypropylcellulose) (HPC)
[6] = dose: 12.5 mg/kg/injection, schedule: Q01DX009 (ip), vehicle: saline with Tween-80
[7] = dose: 25.0 mg/kg/injection, schedule: Q01DX009 (ip), vehicle: saline with Tween-80
[8] = dose: 50.0 mg/kg/injection, schedule: Q01DX009 (ip), vehicle: saline with Tween-80
[9] = dose: 100.0 mg/kg/injection, schedule: Q01DX009 (ip), vehicle: saline with Tween-80
[10] = dose: 200.0 mg/kg/injection, schedule: Q01DX009 (ip), vehicle: saline with Tween-80
[11] = dose: 400.0 mg/kg/injection, schedule: Q01DX009 (ip), vehicle: saline with Tween-80
[12] = dose: 100.0 mg/kg/injection, schedule: Q04DX003 (ip), vehicle: saline with Tween-80
[13] = dose: 200.0 mg/kg/injection, schedule: Q04DX003 (ip), vehicle: saline with Tween-80
[14] = dose: 400.0 mg/kg/injection, schedule: Q04DX003 (ip), vehicle: saline with Tween-80

Measured: T/C

NC(c1ccccc1)C(N)c1ccccc1 (configuration not stated)
inactive: dose: 25.0 mg/kg/injection, schedule: Q04DX003 (ip), vehicle: other 97 % of control | dose: 50.0 mg/kg/injection, schedule: Q04DX003 (ip), vehicle: other 97 % of control | dose: 100.0 mg/kg/injection, schedule: Q04DX003 (ip), vehicle: other 86 % of control

O=C(Oc1ccc(OC(=O)c2ccccc2)c2c1C(=O)C(CBr)=C(CBr)C2=O)c1ccccc1
inactive: [1] 97 % of control | [2] 100 % of control | [3] 97 % of control | [4] 101 % of control

CN(C)C(C#N)C(=O)c1ccccc1 (configuration not stated)
inactive: [3] 104 % of control | [4] 97 % of control | [5] 97 % of control

O=C(CCl)N1CCC2(CC1)SSC1(CCN(C(=O)CCl)CC1)S2
inactive: [6] 100 % of control | [7] 90 % of control

CCCCNC(=S)S
inactive: dose: 100.0 mg/kg/injection, schedule: Q01DX009 (ip), vehicle: other 90 % of control | dose: 200.0 mg/kg/injection, schedule: Q01DX009 (ip), vehicle: other 94 % of control

CCNc1nc(NCC)nc(OC)n1
inactive: [8] 117 % of control | dose: 66.0 mg/kg/injection, schedule: Q01DX009 (ip), vehicle: saline with Tween-80 93 % of control | [9] 95 % of control | dose: 150.0 mg/kg/injection, schedule: Q01DX009 (ip), vehicle: saline with Tween-80 93 % of control | [10] 105 % of control

CC1=NN(c2ccccc2)C(=O)C1CC1C(=O)N(c2ccccc2)N=C1C (configuration not stated)
inactive: [9] 95 % of control | [10] 95 % of control | [11] 89 % of control

C=C1C(=O)OCC2C(C(=O)O)=CC3C(C)C(C)=CC123 (configuration not stated)
inactive: dose: 2.5 mg/kg/injection, schedule: Q01DX009 (ip), vehicle: Klucel (hydroxypropylcellulose) (HPC) 106 % of control | dose: 3.12 mg/kg/injection, schedule: Q01DX009 (ip), vehicle: other 94 % of control | dose: 5.0 mg/kg/injection, schedule: Q01DX009 (ip), vehicle: Klucel (hydroxypropylcellulose) (HPC) 98 % of control | dose: 6.25 mg/kg/injection, schedule: Q01DX009 (ip), vehicle: other 101 % of control | dose: 10.0 mg/kg/injection, schedule: Q01DX009 (ip), vehicle: Klucel (hydroxypropylcellulose) (HPC) 96 % of control | dose: 12.5 mg/kg/injection, schedule: Q01DX009 (ip), vehicle: other 101 % of control | dose: 20.0 mg/kg/injection, schedule: Q01DX009 (ip), vehicle: Klucel (hydroxypropylcellulose) (HPC) 98 % of control | dose: 25.0 mg/kg/injection, schedule: Q01DX009 (ip), vehicle: other 111 % of control | dose: 40.0 mg/kg/injection, schedule: Q01DX009 (ip), vehicle: Klucel (hydroxypropylcellulose) (HPC) 105 % of control

O=C(CCl)c1ccc(O)c(O)c1
inactive: [2] 94 % of control | [3] 87 % of control

Cc1nc(C(N)=O)c(=O)[nH]c1C
inactive: dose: 12.5 mg/kg/injection, schedule: Q04DX003 (ip), vehicle: saline 97 % of control | dose: 25.0 mg/kg/injection, schedule: Q04DX003 (ip), vehicle: saline 102 % of control | dose: 50.0 mg/kg/injection, schedule: Q04DX003 (ip), vehicle: saline with Tween-80 97 % of control | dose: 50.0 mg/kg/injection, schedule: Q04DX003 (ip), vehicle: saline 100 % of control | [12] 102 % of control | [13] 100 % of control | [14] 104 % of control

COC(=O)C1(C(=O)OC)C2C(=O)C3C(C21)C3(C(=O)OC(C)(C)C)C(=O)OC(C)(C)C (configuration not stated)
inactive: dose: 100.0 mg/kg/injection, schedule: Q04DX003 (ip), vehicle: Klucel (hydroxypropylcellulose) (HPC) 111 % of control | dose: 200.0 mg/kg/injection, schedule: Q04DX003 (ip), vehicle: Klucel (hydroxypropylcellulose) (HPC) 101 % of control | dose: 400.0 mg/kg/injection, schedule: Q04DX003 (ip), vehicle: Klucel (hydroxypropylcellulose) (HPC) 98 % of control

CC1CCC(O)C1O (configuration not stated)
inactive: dose: 100.0 mg/kg/injection, schedule: Q01DX009 (ip), vehicle: saline 120 % of control | dose: 200.0 mg/kg/injection, schedule: Q01DX009 (ip), vehicle: saline 120 % of control | dose: 400.0 mg/kg/injection, schedule: Q01DX009 (ip), vehicle: saline 122 % of control

Cc1ccccc1OS(=O)(=O)c1cccc([N+](=O)[O-])c1
inactive: [9] 113 % of control | [10] 113 % of control | [11] 107 % of control

CC1CC(C)(O)C2C3(C)CCCC2(COC3=O)C12CCC1(CCOC1=O)O2 (configuration not stated)
inactive: dose: 2.5 mg/kg/injection, schedule: Q01DX009 (ip), vehicle: saline with Tween-80 102 % of control | dose: 5.0 mg/kg/injection, schedule: Q01DX009 (ip), vehicle: saline with Tween-80 94 % of control | dose: 10.0 mg/kg/injection, schedule: Q01DX009 (ip), vehicle: saline with Tween-80 98 % of control

c1cc2ccc3ccc(C4CO4)c4ccc(c1)c2c34 (configuration not stated)
inactive: dose: 3.12 mg/kg/injection, schedule: Q01DX009 (ip), vehicle: Klucel (hydroxypropylcellulose) (HPC) 95 % of control | [1] 96 % of control | [2] 100 % of control | [3] 86 % of control

O=C(O)c1cc(-c2ccc(Cl)cc2)nc2c(-c3ccccc3)cccc12
inactive: [6] 87 % of control | [7] 105 % of control | [8] 87 % of control and 94 % of control | [9] 86 % of control | [10] 87 % of control

NC(CCCCNC(=O)c1ccccc1)C(=O)O (configuration not stated)
inactive: [8] 100 % of control | [9] 100 % of control | [10] 92 % of control | [11] 95 % of control

COC1C(O)C(C)OC(O[C@@H]2C[C@H]3CC[C@@H]4[C@H](CC[C@]5(C)[C@@H](C6=CC(=O)OC6)CC[C@]45O)[C@@]3(C)[C@H](O)C2)C1O (some centres not stated)
inactive: [2] 96 % of control | [3] 87 % of control | [4] 95 % of control | [5] 98 % of control

Cc1cnc2c(N)[nH]nc2n1
inactive: [4] 97 % of control | [5] 106 % of control | dose: 200.0 mg/kg/injection, schedule: Q01DX009 (ip), vehicle: Klucel (hydroxypropylcellulose) (HPC) 107 % of control

CC(C)(C)C1CC(C(F)(F)F)(C(F)(F)F)OS(=O)O1 (configuration not stated)
inactive: dose: 1.56 mg/kg/injection, schedule: Q04DX003 (ip), vehicle: saline 102 % of control | dose: 3.13 mg/kg/injection, schedule: Q04DX003 (ip), vehicle: saline 115 % of control | dose: 6.25 mg/kg/injection, schedule: Q04DX003 (ip), vehicle: saline 105 % of control

CN(C)CCCN1c2ccccc2Sc2ccc(C(F)(F)F)cc21
inactive: dose: 0.06 mg/kg/injection, schedule: Q01DX009 (ip), vehicle: saline 89 % of control | dose: 0.25 mg/kg/injection, schedule: Q01DX009 (ip), vehicle: saline 97 % of control | dose: 0.5 mg/kg/injection, schedule: Q01DX009 (ip), vehicle: saline 109 % of control | dose: 2.0 mg/kg/injection, schedule: Q01DX009 (ip), vehicle: saline 104 % of control | dose: 8.0 mg/kg/injection, schedule: Q01DX009 (ip), vehicle: saline 109 % of control

[O-]c1cc2c3c(c1)c1cc4c(cc1c[n+]3C=C2)OCO4
inactive: dose: 3.13 mg/kg/injection, schedule: Q01DX009 (ip), vehicle: water 96 % of control | dose: 6.25 mg/kg/injection, schedule: Q01DX009 (ip), vehicle: water 121 % of control | dose: 12.5 mg/kg/injection, schedule: Q01DX009 (ip), vehicle: water 122 % of control | dose: 25.0 mg/kg/injection, schedule: Q01DX009 (ip), vehicle: water 124 % of control | dose: 50.0 mg/kg/injection, schedule: Q01DX009 (ip), vehicle: water 114 % of control

CCCCCNC(=O)Nc1cccc(Cl)c1C
inactive: dose: 6.25 mg/kg/injection, schedule: Q01DX009 (ip), vehicle: saline with Tween-80 91 % of control | [6] 104 % of control | [7] 100 % of control | [8] 89 % of control and 103 % of control

COC(=O)/C=C/c1ccc([N+](=O)[O-])cc1
inactive: [12] 90 % of control | [13] 93 % of control | [14] 86 % of control

From PubChem BioAssay AID192 (DTP/NCI, 2004)
